Experimental data: ChEMBL document CHEMBL6109064, “Functional and structural polypharmacology of indazole-based privileged ligands to tackle the undruggability of membrane transporters” (Eur J Med Chem, 2025)
The source made the active and inactive calls. The calls are words filed in the database; no cut-off is given here.

What was measured:
Type in all cases: cell-based
[1] = biological target: ATP-dependent translocase ABCB1 (Homo sapiens, UniProt P08183); assay: Inhibition of ABCB1 in human A2780 ADR cells assessed as increase in calcein-AM fluorescence intensity using calcein-AM as tracer preincubated for 30 mins followed by calcein-AM addition and measured within 30 mins at 30s intervals by fluorescence based analysis
[2] = biological target: T1, Solute carrier organic anion transporter family member 1A2 (Homo sapiens, UniProt P46721); assay: Inhibition of OATP1A2 (unknown origin) transfected in human A-431 cells assessed as inhibition of SR101 uptake preincubated for 5 mins followed by SR101 addition and measured after 10 mins by fluorescence based analysis
T1 sequence (P46721 whole entry): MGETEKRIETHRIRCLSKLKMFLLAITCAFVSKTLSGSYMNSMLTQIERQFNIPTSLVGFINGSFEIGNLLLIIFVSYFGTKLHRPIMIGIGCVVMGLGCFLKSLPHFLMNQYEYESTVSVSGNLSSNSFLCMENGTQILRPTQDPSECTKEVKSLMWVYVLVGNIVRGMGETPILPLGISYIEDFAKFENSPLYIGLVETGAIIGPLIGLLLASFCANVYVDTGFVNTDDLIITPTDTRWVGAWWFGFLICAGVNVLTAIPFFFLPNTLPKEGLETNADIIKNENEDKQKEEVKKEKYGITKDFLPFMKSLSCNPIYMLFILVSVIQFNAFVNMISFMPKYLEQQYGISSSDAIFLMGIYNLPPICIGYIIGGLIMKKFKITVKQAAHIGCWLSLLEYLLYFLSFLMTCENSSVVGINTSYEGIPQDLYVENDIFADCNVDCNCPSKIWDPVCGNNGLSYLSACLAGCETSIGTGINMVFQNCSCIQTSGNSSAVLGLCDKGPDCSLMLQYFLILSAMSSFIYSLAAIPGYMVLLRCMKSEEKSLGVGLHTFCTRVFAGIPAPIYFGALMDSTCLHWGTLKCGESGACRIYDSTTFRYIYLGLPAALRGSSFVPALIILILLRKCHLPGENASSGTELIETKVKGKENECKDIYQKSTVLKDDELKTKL

[3] = biological target: T2, ATP-binding cassette sub-family C member 10 (Homo sapiens, UniProt Q5T3U5); assay: Reversal of ABCC10 (unknown origin) -mediated multidrug resistance transfected in human HEK293 MRP7 cells assessed as increase in paclitaxel-mediated cytotoxicity incubated for 68 hrs in presence of paclitaxel by MTT assay
T2 sequence (Q5T3U5 whole entry): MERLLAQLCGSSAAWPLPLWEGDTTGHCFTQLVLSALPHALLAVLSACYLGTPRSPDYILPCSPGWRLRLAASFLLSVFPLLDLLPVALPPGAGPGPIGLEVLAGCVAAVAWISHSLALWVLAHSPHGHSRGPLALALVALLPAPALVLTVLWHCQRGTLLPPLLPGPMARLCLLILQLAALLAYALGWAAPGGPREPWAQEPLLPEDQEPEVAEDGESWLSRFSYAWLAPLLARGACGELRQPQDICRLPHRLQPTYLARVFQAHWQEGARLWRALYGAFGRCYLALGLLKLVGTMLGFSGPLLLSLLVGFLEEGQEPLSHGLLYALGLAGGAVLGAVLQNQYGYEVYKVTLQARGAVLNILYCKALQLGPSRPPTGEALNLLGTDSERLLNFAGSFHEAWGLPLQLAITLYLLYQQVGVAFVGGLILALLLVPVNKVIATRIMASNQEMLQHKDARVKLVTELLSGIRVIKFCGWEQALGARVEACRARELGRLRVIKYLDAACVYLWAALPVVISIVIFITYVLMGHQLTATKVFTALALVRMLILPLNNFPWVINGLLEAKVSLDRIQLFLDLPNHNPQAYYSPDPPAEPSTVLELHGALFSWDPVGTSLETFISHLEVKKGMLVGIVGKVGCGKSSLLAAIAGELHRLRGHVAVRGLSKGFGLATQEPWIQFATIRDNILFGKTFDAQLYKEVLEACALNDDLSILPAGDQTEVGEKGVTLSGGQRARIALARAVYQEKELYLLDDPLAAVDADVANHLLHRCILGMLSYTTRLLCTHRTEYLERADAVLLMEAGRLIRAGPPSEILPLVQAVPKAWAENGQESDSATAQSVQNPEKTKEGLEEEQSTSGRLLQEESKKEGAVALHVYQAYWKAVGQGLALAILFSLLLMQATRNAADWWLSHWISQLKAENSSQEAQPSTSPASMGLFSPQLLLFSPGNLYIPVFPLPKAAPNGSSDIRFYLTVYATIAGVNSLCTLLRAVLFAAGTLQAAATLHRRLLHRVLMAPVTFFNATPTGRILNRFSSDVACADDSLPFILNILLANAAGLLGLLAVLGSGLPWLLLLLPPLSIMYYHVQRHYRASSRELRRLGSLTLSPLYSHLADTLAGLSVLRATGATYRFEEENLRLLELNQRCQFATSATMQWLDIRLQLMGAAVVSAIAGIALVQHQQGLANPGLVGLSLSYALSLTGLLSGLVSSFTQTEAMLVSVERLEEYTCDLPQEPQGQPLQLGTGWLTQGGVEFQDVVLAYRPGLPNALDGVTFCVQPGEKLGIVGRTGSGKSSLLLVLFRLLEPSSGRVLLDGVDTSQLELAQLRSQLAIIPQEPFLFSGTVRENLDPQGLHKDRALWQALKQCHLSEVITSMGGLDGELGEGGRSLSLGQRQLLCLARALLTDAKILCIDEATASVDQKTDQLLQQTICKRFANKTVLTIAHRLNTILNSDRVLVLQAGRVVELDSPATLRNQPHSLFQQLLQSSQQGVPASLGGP

[4] = biological target: Sodium-dependent serotonin transporter (Homo sapiens) (UniProt P31645); assay: Inhibition of SERT (unknown origin) expressed in HEK293 cells assessed as inhibition of MPP+ transport incubated for 5 mins by tandem mass spectrometry
Sequence of Sodium-dependent serotonin transporter (Homo sapiens) (P31645 whole entry, looked up): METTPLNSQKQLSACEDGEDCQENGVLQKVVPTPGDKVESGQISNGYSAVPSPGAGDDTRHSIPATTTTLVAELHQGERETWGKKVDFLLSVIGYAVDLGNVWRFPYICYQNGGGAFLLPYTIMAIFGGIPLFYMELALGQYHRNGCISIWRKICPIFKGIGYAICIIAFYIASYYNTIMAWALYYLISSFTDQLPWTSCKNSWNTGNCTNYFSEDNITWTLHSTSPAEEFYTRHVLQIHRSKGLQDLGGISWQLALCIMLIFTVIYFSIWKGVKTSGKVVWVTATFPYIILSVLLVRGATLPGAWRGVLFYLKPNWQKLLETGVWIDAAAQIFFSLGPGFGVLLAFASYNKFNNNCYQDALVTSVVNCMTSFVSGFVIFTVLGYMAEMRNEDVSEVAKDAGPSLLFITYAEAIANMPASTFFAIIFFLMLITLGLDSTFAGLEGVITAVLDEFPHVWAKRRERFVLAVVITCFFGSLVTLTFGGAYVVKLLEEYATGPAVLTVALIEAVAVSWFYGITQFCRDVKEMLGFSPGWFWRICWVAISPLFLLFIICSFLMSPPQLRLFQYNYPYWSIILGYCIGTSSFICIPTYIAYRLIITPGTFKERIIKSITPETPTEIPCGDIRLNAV

Sequence of ATP-dependent translocase ABCB1 (P08183 whole entry): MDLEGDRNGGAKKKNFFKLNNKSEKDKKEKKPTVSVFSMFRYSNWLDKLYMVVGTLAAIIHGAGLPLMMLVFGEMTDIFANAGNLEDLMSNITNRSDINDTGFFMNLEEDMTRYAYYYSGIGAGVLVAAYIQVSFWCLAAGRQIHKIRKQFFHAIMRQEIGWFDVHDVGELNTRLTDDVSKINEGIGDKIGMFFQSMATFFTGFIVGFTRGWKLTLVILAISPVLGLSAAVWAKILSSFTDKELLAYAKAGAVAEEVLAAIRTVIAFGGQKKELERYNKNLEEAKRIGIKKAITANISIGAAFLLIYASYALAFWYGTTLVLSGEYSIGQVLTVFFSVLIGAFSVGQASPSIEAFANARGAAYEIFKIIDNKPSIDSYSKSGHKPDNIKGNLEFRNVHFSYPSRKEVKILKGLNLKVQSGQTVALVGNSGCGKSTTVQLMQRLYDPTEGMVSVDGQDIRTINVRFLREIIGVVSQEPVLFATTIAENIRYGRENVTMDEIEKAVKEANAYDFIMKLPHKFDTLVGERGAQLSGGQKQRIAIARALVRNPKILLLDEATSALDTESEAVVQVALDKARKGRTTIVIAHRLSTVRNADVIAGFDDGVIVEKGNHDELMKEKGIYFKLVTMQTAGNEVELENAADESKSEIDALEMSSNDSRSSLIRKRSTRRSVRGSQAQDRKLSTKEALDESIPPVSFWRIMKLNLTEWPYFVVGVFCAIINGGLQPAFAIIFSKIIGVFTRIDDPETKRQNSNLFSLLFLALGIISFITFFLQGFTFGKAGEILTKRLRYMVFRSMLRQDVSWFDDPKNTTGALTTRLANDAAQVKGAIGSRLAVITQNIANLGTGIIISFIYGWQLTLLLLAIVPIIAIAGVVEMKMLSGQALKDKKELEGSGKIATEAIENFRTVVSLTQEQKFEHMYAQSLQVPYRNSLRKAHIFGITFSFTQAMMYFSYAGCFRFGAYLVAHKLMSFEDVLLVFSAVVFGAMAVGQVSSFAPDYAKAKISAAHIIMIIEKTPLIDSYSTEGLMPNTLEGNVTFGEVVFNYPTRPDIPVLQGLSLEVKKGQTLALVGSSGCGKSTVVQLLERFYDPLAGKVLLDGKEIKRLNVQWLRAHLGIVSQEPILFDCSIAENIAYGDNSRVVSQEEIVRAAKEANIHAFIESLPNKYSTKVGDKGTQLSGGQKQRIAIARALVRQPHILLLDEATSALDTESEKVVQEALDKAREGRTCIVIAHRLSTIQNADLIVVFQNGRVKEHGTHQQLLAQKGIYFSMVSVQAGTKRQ

| SMILES | IC50 [1] [nM] | IC50 [2] [nM] | EC50 [3] | inhibition [4] |
| --- | --- | --- | --- | --- |
| O=C(Cn1nc(C(=O)Nc2ccccn2)c2ccccc21)Nc1cc(Cl)ccc1Cl | 626 | 1320 | Not_active | inactive |
| COc1cccc(NC(=O)c2nn(CC(=O)Nc3ccccc3OC)c3ccccc23)c1 | 1560 | 237 | Not_active | inactive |
| O=C(Cn1nc(C(=O)Nc2cccnc2)c2ccccc21)Nc1ccc(Cl)cc1 | 6120 | 422 | – | inactive |
| COc1cccc(NC(=O)Cn2nc(C(=O)Nc3cccc(OC)c3)c3ccccc32)c1 | 1100 | 420 | Not_active | inactive |
